This assay relates to CEM cells HIV-1 protection, formazan growth assay. Description: NCI AIDS Antiviral Assay. The conditions noted are these: for IC50: measured here: growth of uninfected CEM cells. In short, it runs like this:
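Protection of CEM cells against HIV-1 measured as cell growth via soluble formazan read-out, with five concentrations tested on both infected and uninfected cells; failure to protect may reflect toxicity.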

A word on the EC50: it is the concentration needed to bring the measured effect to its halfway point. What is called IC50 is the concentration that inhibits the measured activity by half.

Values joined by “and” are separate entries in the source; they are usually repeats but may differ in a detail not shown here. Identical values can stand only once. Active and inactive are the calls of the source.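 How the source made its calls: active means compounds giving half or more protection of infected cells from virus-caused growth loss, again on retest; inactive means the rest.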

`COc1ccc([N+](=O)[O-])c(/C(C#N)=C/c2ccccc2)c1`: the EC50 is over 200 µM and the IC50 amounted to 12.3 µM. On the same counts, the results for `O=c1c2ccccc2nc(-c2ccccc2)n1NC(=S)Nc1cccc(Cl)c1` are over 33.1 µM and over 33.1 µM. In the case of `CCSCCCCCCCCCCC(=O)OCC1OC(n2cc(C)c(=O)[nH]c2=O)CC1F` (stereo unspecified), the EC50 is 0.0132 µM and the IC50 is 0.2 µM. Regarding `O=C1N[C@@H]2c3c(Br)sc(Br)c3C(=O)[C@@H]2O1`, the EC50 is over 200 µM and the IC50 worked out at 0.759 µM.

With `CC(C)OC(=O)C1=C(O)c2ccccc2S(=O)(=O)N1C`, the EC50 was over 832 µM and the concentration for half-maximal inhibition (IC50) worked out at 56.2 µM.

Turning to `O=C(O)CC1OCC=C2CN3CCC45c6ccccc6NC4C1C2CC35` (stereo unspecified), the EC50 was over 85.1 µM, the result was inactive and the IC50 is over 85.1 µM. Regarding `COc1cc(NS(=O)(=O)c2ccc(C(C)=O)cc2)nc(OC)n1`, the EC50 was over 200 µM and the 50% inhibitory concentration (IC50) was over 200 µM.

As to `C(=Nc1cccnc1)c1ccc2ccccc2n1`, the EC50 was over 81.3 µM and the IC50 worked out at 44.7 µM. As for `N#CC(NC12CC3CC(CC(C3)C1)C2)c1ccc2c(c1)OCO2` (stereo unspecified), the outcome was inactive.

In the case of `Cc1noc(NS(=O)(=O)c2ccc(NC(=S)/N=C/c3c(O)[nH]c(=O)[nH]c3=O)cc2)c1C`, the EC50 was over 200 µM and the IC50 is over 200 µM. As to `CC(C)(C#N)C(C)(C)SSC(C)(C)C(C)(C)C#N`, the EC50 was over 178 µM and the IC50 was over 178 µM. Regarding `COC(=O)CC(C(C(=O)OCc1ccccc1)C(C)O)N1C(=O)OC(c2ccccc2)C1c1ccccc1` (stereo unspecified), the EC50 is over 251 µM and the IC50 was over 251 µM. As to `COc1ccc(/C(=N/Nc2nc3ccccc3n2Cc2ccccc2)C(=O)O)cc1`, the EC50 is over 200 µM and the IC50 was 4.27 µM. For `CC(C)c1cc2c(cc1S(=O)(=O)O)[C@@]1(C)CCC[C@@](C)(C(=O)O)C1CC2` (stereo partly specified), the EC50 is over 200 µM and the IC50 was over 200 µM.

`CC1(C)CC2(C)OC(=N)C1(C#N)C2(C#N)C#N` (stereo unspecified): the EC50 is over 200 µM and the IC50 stood at 2.34 µM. With `O=C1OC(=O)C([Se]c2ccccc2)=C1[Se]c1ccccc1`, the result was inactive. The same measure, in the same setting: the result for `CC(C)OC(=O)Nc1c([N+](=O)[O-])cc(C(F)(F)F)cc1[N+](=O)[O-]` reads “inactive”. Regarding `Nc1nc2c(ncn2CC2OCC(CO)O2)c(=O)[nH]1` (stereo unspecified), the EC50 was over 2950 µM; the IC50 was 1820 µM and 275 µM. Consider `O=CC1=CCCN(CCc2c[nH]c3ccccc23)C1`, for which the EC50 is over 195 µM and the IC50 is 10.2 µM. As for `COC(=O)[C@@H]1C[C@@]2(C3C=CN(C(=O)C(F)(F)F)C=C3)c3ccccc3N(C(=O)C(F)(F)F)[C@H]2N1C(=O)OC`, the EC50 was over 200 µM and the concentration for half-maximal inhibition (IC50) is 166 µM.

As to `CC1(c2ccc3ccccc3c2)OC(=O)c2ccccc21` (stereo unspecified), the result was inactive. On to `C=CCOC(=O)C1(C)C(=O)CCC1CC/C=C/C(C)=O` (stereo unspecified), for which the EC50 is over 129 µM and the IC50 was 6.03 µM. As for `COc1ccc(OC)c(/C=C2/C(=O)N=C(NC(C)=O)N2C)c1`, the EC50 is over 200 µM and the IC50 was over 200 µM. Turning to `C1=C(c2ccccc2)C(N2CCOCC2)Oc2ccccc21` (stereo unspecified), the EC50 is over 200 µM and the half-maximal inhibitory concentration (IC50) amounted to 89.1 µM. For `COP(=O)(OC)OC1C(=O)NC(=O)NC1=O`, the EC50 is over 200 µM and the IC50 is over 200 µM.

As for `O=S1(=O)NNC(=NCc2ccc(Cl)c(Cl)c2)c2ccccc21`, the outcome was inactive. Take `O=C(Cc1ccccc1)NNc1nc(NNC(=O)c2ccncc2)nc(Nc2ccc([N+](=O)[O-])cc2)n1`: the EC50 was over 100 µM and the 50% inhibitory concentration (IC50) stood at 11.5 µM. On the same counts, the results for `Nc1ccc(/C=C/c2ccc3cccnc3c2)cc1` are 0.0631 µM and over 200 µM.

Consider `O=c1c2cc(-c3ccccc3)cnc2sn1-c1ccc(Br)cc1`, for which the EC50 was 110 µM and the IC50 was 186 µM. With `CC(=O)[O-].O=S(=O)(Nc1ncccn1)c1ccc(N=Cc2ccccc2O)cc1.O=S(=O)(Nc1ncccn1)c1ccc(N=Cc2ccccc2O)cc1.[Co+2]`, the EC50 was over 200 µM and the IC50 is 39.8 µM. `Cc1cc(N(C)C)c(C=O)c(C)c1C=O`: the EC50 was over 1230 µM and the half-inhibitory concentration (IC50) came to 93.3 µM. As for `C=C1CN(Cc2ccccc2)[C@@H]2CCCCC[C@H](C#N)[C@H]12`, the EC50 is over 200 µM and the IC50 was 123 µM. For `O=C(CNC(c1ccccc1)(c1ccccc1)c1ccccc1)NC1CCCCC1NC(=O)CNC(c1ccccc1)(c1ccccc1)c1ccccc1` (stereo unspecified), the EC50 was over 200 µM and the half-maximal inhibitory concentration (IC50) was over 200 µM. `O=C(C(=Cc1ccccc1)C(=O)c1ccccc1)c1ccccc1`: the EC50 was over 43.7 µM and the IC50 came out at 14.5 µM. On to `COc1nc(N)c(NC2OC(CO)C(O)C(O)C2O)c(=O)n1C` (stereo unspecified), for which the outcome was inactive. On to `COC(=O)C(=O)C(C(=O)C(=O)Nc1nc2ccc(C)cc2s1)c1nc2ccc([N+](=O)[O-])cc2[nH]c1=O` (stereo unspecified), for which the EC50 is over 132 µM and the IC50 turned out to be 126 µM. On the same counts, the results for `CC1OC(OCC2OC(Oc3c(-c4ccc(O)cc4)oc4cc(O)cc(O)c4c3=O)C(OC3OC(C)C(O)C(O)C3O)C(O)C2O)C(O)C(O)C1O` (stereo unspecified) are over 339 µM and over 339 µM. Consider `CC(C)C1CC=CCC12C(=O)NC(=O)NC2=O` (stereo unspecified), for which the EC50 was over 1050 µM and the IC50 was determined as 955 µM.

For the molecule `COC(=O)c1c(C)cc(OC(=O)c2c(C)cc(O)c(C=O)c2O)c(C)c1O`, the EC50 is over 151 µM and the concentration for half-maximal inhibition (IC50) came out at 20.4 µM. On to `Nc1ncnc2c1ncn2C(CO)OC(CO)CCP(=O)(O)O` (stereo unspecified), for which the EC50 is over 100 µM and the IC50 was over 100 µM. Take `COc1ccc(OC)c(NC(=O)C(=O)C(C(=O)c2ccccc2F)C2OC(=O)c3ccccc32)c1` (stereo unspecified): the EC50 is over 275 µM and the half-inhibitory concentration (IC50) worked out at 13.2 µM. Turning to `CCOC(=O)C[P+](c1cccc(OC)c1)(c1cccc(OC)c1)c1cccc(OC)c1`, the EC50 was over 200 µM and the half-inhibitory concentration (IC50) was 46.8 µM. `CC#COP(=O)(OCC)OCC`: the EC50 is over 251 µM and the half-maximal inhibitory concentration (IC50) was over 251 µM. Regarding `CC1CC(c2ccc3ccccc3c2)NCCNC(c2ccc3ccccc3c2)CC(C)NCCN1` (stereo unspecified), the EC50 is over 200 µM and the IC50 worked out at 1.15 µM. Take `C[n+]1c(-c2ccc(/C=N\NC(=O)N/N=C/c3ccc(-c4cn5ccccc5[n+]4C)cc3)cc2)cn2ccccc21`: the concentration for a half-maximal effect (EC50) was 36.3 µM and the IC50 amounted to 47.9 µM.

Consider `O=C1NC2(NC(=O)C1=O)Nc1ccccc1S2`, for which the EC50 is over 28.8 µM and the concentration for half-maximal inhibition (IC50) is over 28.8 µM. `CCOP(=O)(OCC)C(=O)C1CC1`: the EC50 was over 1200 µM and the IC50 was found to be 832 µM.

Consider `Nc1ccc(Nc2nc(F)nc(-c3c4ccccc4c4n3CCS4)n2)cc1`, for which the EC50 was over 7.24 µM and the IC50 is 3.63 µM. As to `S=c1nc(-c2ccnc(-c3nc(=S)[nH][nH]3)c2)[nH][nH]1`, the EC50 is over 25.7 µM and the 50% inhibitory concentration (IC50) is over 25.7 µM.

Consider `CCCC(O)c1cn(C(NC(=O)c2ccccc2)P(=O)(OCC)OCC)nn1` (stereo unspecified), for which the EC50 is over 200 µM and the IC50 was over 200 µM. For `CCC(F)(C(N)=O)C(=O)O` (stereo unspecified), the EC50 is over 200 µM and the IC50 was over 200 µM.

On to `O=S(=O)(CC#CCO)c1c2ccccc2cc2ccccc12`, for which the result was inactive.

Take `CCOC(=O)/C=C(/C=C\COC1CCCCO1)c1ccccc1` (stereo unspecified): the EC50 is over 74.1 µM and the IC50 amounted to 36.3 µM. As for `CN(NC(=O)/C(=C/C=C/c1ccccc1)NC(=O)c1ccccc1)C1=C(Cl)C(=O)[N+](c2ccccc2)=CC1`, the EC50 was over 200 µM and the IC50 worked out at 35.5 µM.

As for `Nc1cnn2cnnc2c1`, the EC50 was over 200 µM and the IC50 was over 200 µM.

Consider `CCN(CC)CC(=O)Nc1c(C)ccc(N)c1C`, for which the EC50 is over 200 µM and the IC50 is over 200 µM.

On to `C/C(=N/NC(=S)Nc1cccc(Cl)c1)c1cccc(/C(C)=N\NC(=S)Nc2cccc(Cl)c2)n1`, for which the EC50 is over 200 µM and the half-inhibitory concentration (IC50) amounted to 5.25 µM.

Take `Oc1ccc(-c2csc(NNC3=NC/C(=C/c4ccc5c(c4)OCO5)S3)n2)cc1O`: the EC50 is over 200 µM and the IC50 was found to be 64.6 µM.

Regarding `O/N=c1/sc2ccccc2nc1-c1ccccc1`, the EC50 was over 200 µM and the IC50 was over 200 µM. With `NNC(=O)/C(=C/c1cccc([N+](=O)[O-])c1)NC(=O)c1ccccc1`, the EC50 was over 398 µM and the concentration for half-maximal inhibition (IC50) was over 398 µM. Regarding `NC(=O)OCC(COc1ccc(Cl)cc1)OC(=O)c1ccccc1Cl` (stereo unspecified), the EC50 was over 93.3 µM and the half-maximal inhibitory concentration (IC50) was determined as 70.8 µM.

Turning to `CN(C)/N=C(/CC(O)(C(F)(F)F)C(F)(F)F)c1ccc([N+](=O)[O-])cc1`, the EC50 is over 200 µM and the IC50 was determined as 31.6 µM. On the same counts, the results for `Cc1cccc(Nc2nc3ccccc3nc2NS(=O)(=O)c2ccc(N)cc2)c1` are over 200 µM and 112 µM. On the same counts, the results for `CC(C)(C)C1=C(Br)C(Br)(C(C)(C)C)OP1(=O)c1ccccc1` (stereo unspecified) are over 200 µM and over 200 µM. On the same counts, the results for `CC1=C(C(=O)Nc2ccccc2)C2(CCCCC2)C(C#N)=C(SCC(=O)Nc2ccc(Br)cc2)N1` are over 200 µM and 12.3 µM.

In the case of `COC(=O)C1(OC(=O)Sc2ccccc2)CCN(C)CC1`, the EC50 was over 200 µM and the half-inhibitory concentration (IC50) was 26.3 µM. For the molecule `CCCCCCCCCCCCCCCCCCOP(=O)(O)OCCC=C(c1cc(Cl)c(O)c(C(=O)O)c1)c1cc(Cl)c(O)c(C(=O)O)c1`, the EC50 is over 170 µM and the half-inhibitory concentration (IC50) turned out to be 63.1 µM.

Consider `NC(F)(Cc1ccccc1)C(=O)O` (stereo unspecified), for which the EC50 was over 200 µM and the concentration for half-maximal inhibition (IC50) was over 200 µM.

On to `O=C1NC2(CCCCC2)C(=O)N1CCN(CCCl)CCCl`, for which the EC50 was over 372 µM and the half-inhibitory concentration (IC50) came out at 269 µM. In the case of `c1ccc(C2CN=C(c3ccccn3)C(c3ccccn3)=N2)cc1` (stereo unspecified), the EC50 is over 60.3 µM and the half-inhibitory concentration (IC50) was over 60.3 µM. In the case of `CNS(=O)(=O)NN(C)S(=O)(=O)c1ccc(Br)cc1`, the EC50 was over 132 µM and the IC50 is over 132 µM.
